Measurements as given in patent US20240142457A1, “USE OF CASD1 AS A BIOMARKER OF A CANCER EXPRESSING THE O-ACETYLATED-GD2 GANGLIOSIDE” (OGD2 PHARMA, priority 2021, published 2024).

What was measured:
[1] = system: OAcGD2 expression in MDA-MB-231 GD3S+ cells; assay: OAcGD2 immunocytochemistry and confocal microscopy after CERK inhibitor or siRNA; type: cell-based, human; conditions: 1 μM NVP231, 2, 4, 6, 8, 20, 24 or 48 hours; increase from 2 to 8 hours, decrease after 8 hours
Description: (§1) Transfections were performed with 10 μM of siRNA control non-targeting (D001810-10-20, Horizon), siRNA targeting CASD1 (L-016926-01-0010, Horizon), or two different siRNA targeting CERK: CERK2 (D-004061-02-0010, Horizon), or CERK4 ([…], Horizon) and 4 μL of RNAimax (#137781, Thermo fischer Scientific) in 500 μL of UltraMEM (Lonza). In 6-well plates, 150,000 cells were grown in 1,5 mL of DMEM and transfection mix. Cells were collected 72 hours after transfection for qPCR or immunocytochemistry experiments.
Cells were seeded in 6-well plates (150,000 cells/well) with coverslips in 2 mL of DMEM medium. After 24 hours, the medium was replaced with DMEM containing 1 μM of the CERK inhibitor NVP231 (SigmaN9289). After 2 h, 4 h, 6 h, 8 h, 20 h, 24 h or 48 h of CERK inhibitor treatment, cells were collected for immunocytochemistry experiments.
Transfected cells were grown on glass coverslips and were fixed for 20 min in 4% paraformaldehyde. Cells were washed three times with PBS 1X and membrane permeabilization was performed in 5 μg/mL digitonine in PBS 1X for 20 min. After 3 washes, cells were saturated in PBS 1X-BSA 0.5% blocking buffer. […] The green fluorescence was acquired with λex=488 nm and λem=500-530 nm, DAPI with λex=350 nm and λem=460 nm. […] Mean fluorescence intensity was calculated with macro using ImageJ.

MDA-MB-231 GD3S+ cells = assay: Transwell migration assay; type: cell-based, human; conditions: 1 μM NVP231, 24 hours, vs untreated
Description: as §1
Cells were seeded in 12-well plates containing migration chamber in serum-free medium. Below the chamber, medium with serum was added into the wells in the presence or absence of 1 μM of NVP231. After 24 hours incubation at 37° C., wells were fixed with 4% paraformaldehyde and non-migratory cells were swapped with cotton swabs. Cells were washed three times and nuclei were stained with DAPI. Membranes were cut out and mounted between glass slide and coverslip with fluorescent mounting medium. Nuclei were counted using A1 Nikon confocal microscopy.

[2] = system: OAcGD2 expression in MDA-MB-231 GD3S+ cells; assay: siRNA screen, OAcGD2 immunofluorescence (8B6 mAb) with automated imaging; type: cell-based, human; conditions: fixed cells treated with NaOH 0.1M before primary antibody staining, compared to siNT transfected wells
Description: 2.5 μL/well of 500 nM siGenome siRNA (Dharmacon/Horizon) was printed into blackwalled 384 well cell carrier ultra plates (Perkin Elmer) with Velocity 11 (Agilent) as described before (Chia et al., 2012, Mol. Syst. Biol., 8: 629.). Reverse siRNA transfection was performed by pre-mixing 0.1 μL of Dharmafect 1 transfection reagent (#T-2001-03, Horizon) with 7.4 μL of Optimem for 5 minutes. Addition of mixture to the siRNA plate was then performed with small multidrop combi cassette (Thermo-Fisher) and was left for complexation for 20 minutes with shaking. Addition of 2750 cells in 40 μL of DMEM supplemented with 10% FCS per well was then performed with multidrop combi standard cassette at medium speed (Thermo-Fisher). siRNA targeting-GD2S (L-011279-00-0020, Horizon), Polo like kinase 1 (PLK1; L-003290-00-0020, Horizon) and […] (D-001810-10-20, Horizon) were used as screen controls.
After 72 h of incubation, transfected cells were fixed with 50 μL per well of 4% paraformaldehyde in 2% sucrose and 0.1M sodium phosphate buffer, […] at 37° C. […]
An OAcGD2 expression metric was derived with total cell thresholded fluorescence intensity obtained by immunodetection with 8B6 mAb in MDA-MB-231 GD3S+cells and was normalized with Hoeschst nuclei counts. […]

[3] = attributed to GD2 expression in healthy peripheral nerve fibers; cited from earlier work

Question: Which “OAcGD2 expression (mean fluorescence intensity)” value [1] does the source give for `O=C(Nc1nc2ccc(NC(=O)C34CC5CC(CC(C5)C3)C4)cc2s1)c1ccccc1` [CERK inhibitor, NVP231] here?
Answer: Its value is “transitory overexpression”.

Question: What about the “migration capacity of the cells” value (MDA-MB-231 GD3S+ cells) of the same molecule?
Answer: The value was “no effect”.

Question: With `[Na+].[OH-]` [NaOH, Sodium hydroxide] as the molecule, how does the OAcGD2 staining [2] read?
Answer: The OAcGD2 staining was “abolished”.

B1: Dinutuximab: anti-GD2 monoclonal antibody approved for pediatric high-risk neuroblastoma (antibody, chains of the INN, looked up, V domains shown)
VH: EVQLLQSGPELEKPGASVMISCKASGSSFTGYNMNWVRQNIGKSLEWIGAIDPYYGGTSYNQKFKGRATLTVDKSSSTAYMHLKSLTSEDSAVYYCVSGMEYWGQGTSVTVSS
VL: EIVMTQSPATLSVSPGERATLSCRSSQSLVHRNGNTYLHWYLQKPGQSPKLLIHKVSNRFSGVPDRFSGSGSGTDFTLKISRVEAEDLGVYFCSQSTHVPPLTFGAGTKLELK
Question: With B1 as the molecule, how does the side effects [3] read?
Answer: Its side effects is “severe side effects”.
